# From article PMC8700061, “Fragment-Sized and Bidentate (Immuno)Proteasome Inhibitors Derived from Cysteine and Threonine Targeting Warheads” (Cells, 2021)
# Legend:
# Assay type in all cases: biochemical
# β2i subunit of human iCP = target: T1, β2i subunit of human iCP (Homo sapiens, UniProt P40306+P49720); assay: Residual β2i activity, Boc-LRR-AMC; conditions: 10 µM, PA28α
# T1 construct: purchased Boston Biochem, Inc., Cambridge, MA, USA
# Experimental: Residual activity measurements were performed at 10 μM final concentrations in the assay buffer (0.01% SDS, 50 mM Tris-HCl, 0.5 mM EDTA, pH 7.4). Stock solutions of the compounds were prepared in DMSO. To 50 μL of each compound in buffer, 25 μL of 0.8 nM human iCP or human cCP (both from Boston Biochem, Inc., Cambridge, MA, USA) were added. After incubation at 37 °C for 30 min, the reaction was started by adding of 25 μL of 100 μM relevant fluorogenic substrate: acetyl-Nle-Pro-Nle-Asp-AMC (Ac-nLPnLD-AMC, (Bachem, Bubendorf, Switzerland)) for β1, acetyl-Pro-Ala-Leu-7-amino-4-methylcoumarin (Ac-PAL-AMC, (Boston Biochem, Inc., Cambridge, MA, USA)) for β1i, t-butyloxycarbonyl-Leu-Arg-Arg-7-amino-4-methylcoumarin (Boc-LRR-AMC, (Bachem, Bubendorf, Switzerland)) for β2 and β2i, succinyl-Leu-Leu-Val-Tyr-7-amino-4-methylcoumarin (Suc-LLVY-AMC) (Bachem, Bubendorf, Switzerland) for β5 and β5i. Reaction progress was recorded on BioTek Synergy HT microplate reader by monitoring fluorescence at 460 nm (λex = 360 nm) for 90 min at 37 °C. The initial linear ranges were used to calculate velocity and determine residual activity. In the case of evaluation of β1, βi, β2, and β2i activities, the assay buffer was modified by replacing SDS with the proteasomal activator PA28α (Boston Biochem, Inc., Cambridge, MA, USA).
# hMAO-A = target: T2, hMAO-A (Homo sapiens, UniProt P21397); assay: Monoamine oxidase assay, hMAO-A; conditions: 30 min pre-incubation, read-out: Residual activity [%] ± SD, hMAO-A
# T2 construct: purchased Sigma Aldrich; host or cells: BTI-TN-5B1-4 insect cells
# T2 sequence (P21397 1-527): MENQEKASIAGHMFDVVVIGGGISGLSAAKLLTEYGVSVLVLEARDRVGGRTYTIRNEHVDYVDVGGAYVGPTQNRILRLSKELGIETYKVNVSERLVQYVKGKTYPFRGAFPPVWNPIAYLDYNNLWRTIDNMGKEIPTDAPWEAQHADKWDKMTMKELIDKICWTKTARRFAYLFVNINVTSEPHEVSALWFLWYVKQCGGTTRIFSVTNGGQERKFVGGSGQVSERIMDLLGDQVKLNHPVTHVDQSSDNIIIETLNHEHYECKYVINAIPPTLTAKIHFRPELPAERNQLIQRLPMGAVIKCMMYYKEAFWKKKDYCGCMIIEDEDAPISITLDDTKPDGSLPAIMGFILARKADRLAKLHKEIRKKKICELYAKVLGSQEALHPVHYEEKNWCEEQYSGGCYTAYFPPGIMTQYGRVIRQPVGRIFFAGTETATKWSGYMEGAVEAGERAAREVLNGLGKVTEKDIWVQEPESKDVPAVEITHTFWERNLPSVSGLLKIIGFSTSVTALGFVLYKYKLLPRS
# Experimental: The effects of the test compounds on hMAO were investigated using fluorimetric assay. Recombinant hMAO-A and hMAO-B, expressed in BTI-TN-5B1-4 insect cells, horseradish peroxidase type II and p-tyramine hydrochloride were purchased from Sigma Aldrich. Amplex Red was synthesized as previously described.
# Briefly, 50 mM sodium phosphate buffer (pH = 7.4, 0.05 vol.% Triton X-114) containing the compounds or the reference inhibitors and hMAO were incubated at 37 °C for 30 min. The reaction was started by adding Amplex Red (final concentration, 250 µM), horseradish peroxidase (final activity, 1 U/mL), and p-tyramine (final concentration, 1 mM). The increase in fluorescence (λex = 530 nm, λem = 590 nm) was monitored for 30 min at 37 °C. DMSO at a concentration of 1.5% (v/v) was used for the control experiments. For the determination of blank (b), the enzyme was replaced by phosphate-buffered solution. Each measurement was performed in duplicate. Inhibitory potencies were expressed as residual activities (RA), as described under the Cholinesterase assay section.
# human caspase-1 = target: T3, human caspase-1 (Homo sapiens, UniProt P29466); assay: Caspase-1 assay, Ac-YVAD-AMC; conditions: 30 min pre-incubation, read-out: Residual activity [%] ± SD, Caspase-1
# T3 construct: purchased Sigma Aldrich, St. Louis, MO, USA C5482; host or cells: E. coli
# T3 sequence (P29466 120-297 limits assumed): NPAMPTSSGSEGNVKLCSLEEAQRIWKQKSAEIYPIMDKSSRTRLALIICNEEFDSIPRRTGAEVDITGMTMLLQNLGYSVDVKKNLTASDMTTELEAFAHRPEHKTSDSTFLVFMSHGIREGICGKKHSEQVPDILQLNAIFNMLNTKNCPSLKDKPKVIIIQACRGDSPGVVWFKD
# T3 sequence (P29466 317-404 limits assumed): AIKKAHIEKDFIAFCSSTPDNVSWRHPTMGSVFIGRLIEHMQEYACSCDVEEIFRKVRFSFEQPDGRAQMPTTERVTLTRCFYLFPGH
# Experimental: The inhibitory activity of the compounds against caspase-1 was investigated by fluorimetric assay using Ac-YVAD-AMC (SCP0069-5 mg, Sigma Aldrich, St. Louis, MO, USA) as a substrate. Recombinant human caspase-1 (expressed in E. coli, C5482, batch: SLBX3303, Sigma Aldrich, St. Louis, MO, USA) was diluted with 1 mL of assay buffer (50 mM HEPES pH 7.4, 100 mM NaCl, 1 mM EDTA, 10% (v/v) glycerol, 0.1% CHAPS, 1 mM DTT), divided into 50 µL aliquots and stored at −80 °C.
# Briefly, compounds were incubated at a concentration of 100 µM (or 1% (v/v) DMSO as a control) with caspase-1 (1:5 dilution of caspase-1 stock solution) in assay buffer without DTT (to exclude reaction of compounds with DTT) in a 384-well microplate at room temperature for 30 min. The reaction was started by adding the substrate Ac-YVAD-AMC (final concentration: 20 µM) and monitored at λex = 360/40 and λem = 460/40 (Synergy HT, BioTek Instruments, Inc., Santa Clara, CA, USA) for 1 h. The initial linear ranges were used to calculate the velocity and determine RAs. Z-Val-Ala-DL-Asp-fluoromethylketone (N-1510, Bachem, Bubendorf, Switzerland) was used as a positive control.
SMILES,β2i (RA [%]) (β2i subunit of human iCP; Table 6),remaining activity at 100 µM (hMAO-A),remaining activity at 100 µM (human caspase-1),β2i (RA [%]) (β2i subunit of human iCP; Table 3)
CC(C)C[C@H](NC(=O)CCn1c(C#N)nc2cccc(Cl)c21)B1O[C@@H]2C[C@@H]3C[C@@H](C3(C)C)[C@]2(C)O1 [Compound 38],"NA (NA, Not active (RA above 95%))",24 ± 1%,> 50%,–
N#Cc1nc2cc(O)ccc2o1 [Compound 11],–,26%,0%,"NA (NA, Not active (RA above 90%))"
C=Cc1nc(CC(=O)N[C@@H](CC(C)C)B2O[C@@H]3C[C@@H]4C[C@@H](C4(C)C)[C@]3(C)O2)cs1 [Compound 28],"NA (NA, Not active (RA above 95%))",42%,> 50%,–
CC(=O)Oc1ccc2oc(C#N)nc2c1 [Compound 15],–,16%,12 ± 2%,"NA (NA, Not active (RA above 90%))"
N#Cc1nc2cccc(O)c2o1 [Compound 13],–,48 ± 1%,5 ± 1%,83%
CC(C)C[C@H](NC(=O)Cc1ccc2oc(C#N)nc2c1)B(O)O [Compound 40],"NA (NA, Not active (RA above 95%))",36%,> 50%,–
CC(C)C[C@H](NC(=O)Cc1ccc2oc(C#N)nc2c1)B1O[C@@H]2C[C@@H]3C[C@@H](C3(C)C)[C@]2(C)O1 [Compound 39],"NA (NA, Not active (RA above 95%))",42%,> 50%,–
CC(=O)Oc1cccc2oc(C#N)nc12 [Compound 14],–,34%,49 ± 5%,"NA (NA, Not active (RA above 90%))"
CC(C)C[C@H](NC(=O)CCCn1c(C#N)nc2ccccc21)B1O[C@@H]2C[C@@H]3C[C@@H](C3(C)C)[C@]2(C)O1 [Compound 31],"NA (NA, Not active (RA above 95%))",24%,> 50%,–
CC(C)C[C@H](NC(=O)CCn1c(C#N)nc2ccccc21)B1O[C@@H]2C[C@@H]3C[C@@H](C3(C)C)[C@]2(C)O1 [Compound 30],"NA (NA, Not active (RA above 95%))",> 50%,> 50%,–
COc1cccc2oc(C#N)nc12 [Compound 6],–,27%,–,"NA (NA, Not active (RA above 90%))"
N#Cc1nc2c(O)cccc2o1 [Compound 10],–,38 ± 2%,9 ± 3%,"NA (NA, Not active (RA above 90%))"
CC(C)C[C@H](NC(=O)CCCn1c(C#N)nc2ccccc21)B(O)O [Compound 35],"NA (NA, Not active (RA above 95%))",> 50%,> 50%,–
CC(C)C[C@H](NC(=O)CCn1c(C#N)nc2ccccc21)B(O)O [Compound 34],"NA (NA, Not active (RA above 95%))",> 50%,> 50%,–
